This is an account of results in patent KR20100138114A, “안정성이 향상된 무정형 아데포비어 디피복실 고체분산체 및 이의 제조방법” (대원제약주식회사, priority 2009, dated 2010).

The conditions of series [1]: pH 2.0; cited from earlier work.
Series [2] is described as follows: Crystal form conversion test of crystalline adefovir dipivoxil (Experimental Example 1, X-ray diffraction). In kind it is physicochemical. The note with it: overall conclusion: 40 °C, relative humidity 75%, 3 days, then drying at 60 °C.

In the case of `CC(C)(C)C(=O)OCOP(=O)(COCCn1cnc2c(N)ncnc21)OCOC(=O)C(C)(C)C` [아데포비어 디피복실, 9-[2-[[{bis(pivaloyloxy)-methoxy}phosphinyl]methoxy]ethyl]adenine], the “solubility class (BCS)” value in series [1] is listed as “높은 용해도(High solubility)”.

Regarding `CC(C)(C)C(=O)OCOP(=O)(COCCn1cnc2c(N)ncnc21)OCOC(=O)C(C)(C)C` [신규결정형], the “crystal form conversion depending on storage conditions” value in series [2] is on record as “결정형이 전환”.
